Measurements as given in ChEMBL document CHEMBL1770082, “Probing the isoprenylcysteine carboxyl methyltransferase (Icmt) binding pocket: sulfonamide modified farnesyl cysteine (SMFC) analogs as Icmt inhibitors” (Bioorg Med Chem Lett, 2011).

These molecules were tested against T1, Protein-S-isoprenylcysteine O-methyltransferase (Homo sapiens, UniProt O60725) (assay: Inhibition of human ICMT incubated with N-Acetyl-S-farnesyl-L-cysteine substrate for 5 mins followed by addition of [14C]-SAM measured after 30 mins by liquid scintillation counting). Conditions: not given.
T1 sequence (O60725 whole entry): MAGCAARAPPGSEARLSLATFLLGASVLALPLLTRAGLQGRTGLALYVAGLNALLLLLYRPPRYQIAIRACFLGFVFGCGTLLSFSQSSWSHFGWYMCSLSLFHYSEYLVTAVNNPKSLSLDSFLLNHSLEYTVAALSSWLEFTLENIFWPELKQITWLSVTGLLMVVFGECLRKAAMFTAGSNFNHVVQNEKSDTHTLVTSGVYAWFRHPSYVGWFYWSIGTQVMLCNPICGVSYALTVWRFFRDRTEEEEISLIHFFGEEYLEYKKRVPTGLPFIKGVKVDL

Compound | IC50 [µM]
CC(C)=CCC/C(C)=C/CC/C(C)=C/CSC[C@H](NS(=O)(=O)c1cccc2c(N(C)C)cccc12)C(=O)O | 11.6
CC(C)=CCC/C(C)=C/CC/C(C)=C/CSC[C@H](NS(=O)(=O)c1cccs1)C(=O)O | 8.8
CC(C)=CCC/C(C)=C/CC/C(C)=C/CSC[C@H](NS(=O)(=O)c1ccccc1Oc1ccccc1)C(=O)O | 18.4
CC(C)=CCC/C(C)=C/CC/C(C)=C/CSC[C@H](NS(=O)(=O)c1ccc(F)cc1)C(=O)O | 15.5

The next lines start with the values.

IC50 [µM] | Compound
13.4 | CC(C)=CCC/C(C)=C/CC/C(C)=C/CSC[C@H](NS(=O)(=O)c1cccc([N+](=O)[O-])c1)C(=O)O
17 | CC(C)=CCC/C(C)=C/CC/C(C)=C/CSC[C@H](NS(=O)(=O)c1ccccc1)C(=O)O

Each molecule was assayed against T1, Protein-S-isoprenylcysteine O-methyltransferase (assay: Inhibition of human ICMT at 10uM incubated with N-Acetyl-S-farnesyl-L-cysteine substrate for 5 mins followed by addition of [14C]-SAM measured after 30 mins by liquid scintillation counting). Conditions: not given.

inhibition [%] | Compound
10 | COC(=O)[C@H](CSC/C=C(\C)CC/C=C(\C)CCC=C(C)C)NS(=O)(=O)c1cccs1

What follows are molecules tested against T1, Protein-S-isoprenylcysteine O-methyltransferase. Conditions: at 10 µM.
Description: Inhibition of human ICMT at 10 uM incubated with N-Acetyl-S-farnesyl-L-cysteine substrate for 5 mins followed by addition of [14C]-SAM measured after 30 mins by liquid scintillation counting

Compound | inhibition [%]
CC(C)=CCC/C(C)=C/CC/C(C)=C/CSC[C@H](NS(=O)(=O)c1ccc(C(C)C)cc1)C(=O)O | < 45
CC(C)=CCC/C(C)=C/CC/C(C)=C/CSC[C@H](NS(=O)(=O)c1cccc2c(N(C)C)cccc12)C(=O)O | 45
CC(C)=CCC/C(C)=C/CC/C(C)=C/CSC[C@H](NS(=O)(=O)c1c(C(C)C)cc(C(C)C)cc1C(C)C)C(=O)O | < 45
CC(C)=CCC/C(C)=C/CC/C(C)=C/CSC[C@H](NS(=O)(=O)c1ccccc1Br)C(=O)O | < 45
COc1ccc(S(=O)(=O)N[C@@H](CSC/C=C(\C)CC/C=C(\C)CCC=C(C)C)C(=O)O)cc1OC | > 55
CC(C)=CCC/C(C)=C/CC/C(C)=C/CSC[C@H](NS(=O)(=O)c1c(F)c(F)c(F)c(F)c1F)C(=O)O | < 45
C=Cc1ccc(S(=O)(=O)N[C@@H](CSC/C=C(\C)CC/C=C(\C)CCC=C(C)C)C(=O)O)cc1 | < 45
CC(C)=CCC/C(C)=C/CC/C(C)=C/CSC[C@H](NS(=O)(=O)c1c(C)c(C)c(C)c(C)c1C)C(=O)O | < 45
CC(C)=CCC/C(C)=C/CC/C(C)=C/CSC[C@H](NS(=O)(=O)c1ccc(F)cc1F)C(=O)O | 45
CC(C)=CCC/C(C)=C/CC/C(C)=C/CSC[C@H](NS(=O)(=O)c1cccs1)C(=O)O | > 55
CC(=O)c1ccc(S(=O)(=O)N[C@@H](CSC/C=C(\C)CC/C=C(\C)CCC=C(C)C)C(=O)O)cc1 | 45
CC(C)=CCC/C(C)=C/CC/C(C)=C/CSC[C@H](NS(=O)(=O)c1ccc(C(C)(C)C)cc1)C(=O)O | 45
CC(C)=CCC/C(C)=C/CC/C(C)=C/CSC[C@H](NS(=O)(=O)c1ccccc1Oc1ccccc1)C(=O)O | 55
CC(C)=CCC/C(C)=C/CC/C(C)=C/CSC[C@H](NS(=O)(=O)c1ccc(Br)s1)C(=O)O | < 45
CC(C)=CCC/C(C)=C/CC/C(C)=C/CSC[C@H](NS(=O)(=O)c1ccc(Cl)cc1F)C(=O)O | < 45
CC(C)=CCC/C(C)=C/CC/C(C)=C/CSC[C@H](NS(=O)(=O)C[C@@]12CC[C@H](CC1=O)C2(C)C)C(=O)O | 45
CC(C)=CCC/C(C)=C/CC/C(C)=C/CSC[C@H](NS(=O)(=O)c1ccc(-c2ccccc2)cc1)C(=O)O | < 45
COc1ccc(S(=O)(=O)N[C@@H](CSC/C=C(\C)CC/C=C(\C)CCC=C(C)C)C(=O)O)cc1 | < 45
COc1ccc(S(=O)(=O)N[C@@H](CSC/C=C(\C)CC/C=C(\C)CCC=C(C)C)C(=O)O)c(OC)c1 | 45
CC(C)=CCC/C(C)=C/CC/C(C)=C/CSC[C@H](NS(=O)(=O)c1ccccc1C(F)(F)F)C(=O)O | < 45
CC(C)=CCC/C(C)=C/CC/C(C)=C/CSC[C@H](NS(=O)(=O)Cc1ccccc1)C(=O)O | < 45
CC(C)=CCC/C(C)=C/CC/C(C)=C/CSC[C@H](NS(=O)(=O)c1cccc2cccnc12)C(=O)O | 45
CC(C)=CCC/C(C)=C/CC/C(C)=C/CSC[C@H](NS(=O)(=O)c1ccc(F)cc1)C(=O)O | > 55
CC(=O)Nc1ccc(S(=O)(=O)N[C@@H](CSC/C=C(\C)CC/C=C(\C)CCC=C(C)C)C(=O)O)cc1 | < 45

The next lines start with the values.

inhibition [%] | Compound
< 45 | CCCCCCCCS(=O)(=O)N[C@@H](CSC/C=C(\C)CC/C=C(\C)CCC=C(C)C)C(=O)O
17 | CCCCCCSC[C@H](NS(=O)(=O)c1cccc([N+](=O)[O-])c1)C(=O)O
18 | CC(C)=CCC/C(C)=C/CSC[C@H](NS(=O)(=O)c1cccc([N+](=O)[O-])c1)C(=O)O
45 | CC(C)=CCC/C(C)=C/CC/C(C)=C/CSC[C@H](NS(=O)(=O)c1ccc2ccccc2c1)C(=O)O
22 | CC(C)=CCC/C(C)=C/CSC[C@H](NS(=O)(=O)c1ccccc1)C(=O)O
45 | CC(C)=CCC/C(C)=C/CC/C(C)=C/CSC[C@H](NS(=O)(=O)c1ccccc1[N+](=O)[O-])C(=O)O
< 45 | CCCc1ccc(S(=O)(=O)N[C@@H](CSC/C=C(\C)CC/C=C(\C)CCC=C(C)C)C(=O)O)cc1
45 | CC(C)=CCC/C(C)=C/CC/C(C)=C/CSC[C@H](NS(=O)(=O)c1ccc(Cl)cc1)C(=O)O
32 | CCCCCCCCCCCSC[C@H](NS(=O)(=O)c1cccc([N+](=O)[O-])c1)C(=O)O
> 55 | CC(C)=CCC/C(C)=C/CC/C(C)=C/CSC[C@H](NS(=O)(=O)c1cccc([N+](=O)[O-])c1)C(=O)O
> 55 | CC(C)=CCC/C(C)=C/CC/C(C)=C/CSC[C@H](NS(=O)(=O)c1ccc([N+](=O)[O-])cc1)C(=O)O
23 | CC(C)=CCC/C(C)=C/CSC[C@H](NS(=O)(=O)c1ccc(F)cc1)C(=O)O
< 45 | CC(C)=CCC/C(C)=C/CC/C(C)=C/CSC[C@H](NS(=O)(=O)c1ccc(C)cc1)C(=O)O
45 | CC(C)=CCC/C(C)=C/CC/C(C)=C/CSC[C@H](NS(=O)(=O)c1ccccc1)C(=O)O
< 45 | COc1ccc(S(=O)(=O)N[C@@H](CSC/C=C(\C)CC/C=C(\C)CCC=C(C)C)C(=O)O)c([N+](=O)[O-])c1
